Source: patent publication US20060147564A1, “Composition for preventing or treating allergic disease using black rice extract and its therapeutic use” (CELLMICS CO. LTD, priority 2003, published 2006)

Tests used:
[1] = system: mice with asthma induced by ovalbumin; test: Accumulation of eosinophiles in airway (BALF cell count) of mice with asthma induced by ovalbumin (Example 5); type: in vivo, mice (Balb/c); settings: 2nd to 23rd day, negative control 62.7 ± 4.3, n=5
Method: (§1) In order to prepare animal models with asthma, 0.5 ml of ovalbumin solution (500 μg of ovalbumin and 10 mg of alumina gel were dissolved in 1 ml of PBS) was injected into abdominal cavities of twenty 5-week old female mice(Balb/c, Orient, Seoul) on first and 10th experiment day. The ovalbumin solution was sprayed on each mouse on the 21st, the 22nd and the 23rd day to induce asthma.
(§2) Mice (n=15) with asthma induced by ovalbumin were divided into three groups; one was used as a negative control treated with nothing and two other groups were used as experimental groups each treated with cyanidin glycoside by 1.5 mg/kg and 4.5 mg/kg, respectively. Cyanidin glycoside was orally administered once a day in succession from the 2nd day to the 23rd day.
24 hours after final sensitization, each mouse was sacrificed using ether and a microtube was connected into trachea. 0.8 ml of PBS was injected and recovered through the microtube, which was repeated twice. The obtained bronchoalveolar lavage fluid (BALF) was centrifuged to separate cells in airway lumen and various proteins secreted from the cells and lung.
The separated cells were fixed on a slide using cytospin and stained with Diff-Quick staining solution. Photographs were taken by a digital camera attached on Carzeiss microscope (model: AXIOVERT 25-CEL). 5 random regions per each sample were picked to count eosinophiles, and the percentage of eosinophiles in each sample was represented in Table 1.

[2] = system: mice with asthma induced by ovalbumin; test: Inflammation in lung of mice with asthma induced by ovalbumin (microphotographs, Example 5); type: in vivo, mice (Balb/c); settings: 1.5 mg/kg and 4.5 mg/kg orally once a day; FIG. 4C and 4D
Method: as §1, §2
Precisely, as cyanidin glycoside concentration increased, the percentage of eosinophiles in airway decreased to 49% and 38% each; compared with a negative control. […] Inflammation in lung cells of the sacrificed mice was also investigated and the result was represented in FIG. 4.

[3] = system: mice with asthma induced by ovalbumin; test: Inflammation in lung of mice with asthma induced by ovalbumin (microphotographs, Examples 2 and 4); type: in vivo, mice (C57BL/6); settings: intraperitoneal injection twice
Method: At first, in order to prepare animal models of asthma, 200 μl of ovalbumin solution (ovalbumin 200 μg and alumina gel 1000 μg were dissolved in physiological saline) was injected in each abdominal cavity of twenty 10-week old female mice (C57BL/6, Damul Science, Daejeon, Korea). Two weeks later, 200 μl of ovalbumin solution(2% w/v) was sprayed on each mouse to sensitize it. 200 μl of 1% ovalbumin solution was sprayed again on the 21st, the 22nd and the 23rd day, and 10% ovalbumin solution was sprayed again on the 25th day to sensitize.
The above mice with asthma induced by sensitizing with 10% ovalbumin were divided into two groups; one was used as a negative control group treated with nothing and the other was treated with 10 mg/kg of black rice extract. Black rice extract was administered by intraperitoneal injection and the injection was performed twice on the 24th and the 25th day from the treatment of ovalbumin.
48 hours after the treatment of black rice extract, mice were sacrificed using ether. Inflammation in lung of each mouse was investigated. […] Therefore, it was confirmed that black rice extract could inhibit asthma effectively. […]

[4] = system: mice with asthma induced by ovalbumin; test: Accumulation of eosinophiles in airway (BALF cell count) of mice with asthma induced by ovalbumin (Example 3); type: in vivo, mice (C57BL/6); settings: FIG. 2; for percentage of eosinophiles in airway: intraperitoneal injection twice, ovalbumin-exposed mice 58%
Method: At first, in order to prepare animal models of asthma, 200 μl of ovalbumin solution (ovalbumin 200 μg and alumina gel 1000 μg were dissolved in physiological saline) was injected in each abdominal cavity of twenty 10-week old female mice (C57BL/6, Damul Science, Daejeon, Korea). Two weeks later, 200 μl of ovalbumin solution(2% w/v) was sprayed on each mouse to sensitize it. 200 μl of 1% ovalbumin solution was sprayed again on the 21st, the 22nd and the 23rd day, and 10% ovalbumin solution was sprayed again on the 25th day to sensitize. […] Each compound was administered by intraperitoneal injection and the injection was performed twice on the 24th and the 25th day from the treatment of ovalbumin. On the second day from the treatment, each mouse was sacrificed using ether. Then, a microtube was connected to trachea. PBS (phosphate-buffered saline, 0.8 ml) was injected and recovered through the microtube, which was repeated twice, resulting in the obtainment of bronchoalveolar lavage fluid (BALF). The fluid was centrifuged to separate cells in airway lumen and various proteins secreted from the cells and lung. The separated cells were fixed on a slide using cytospin and stained with Diff-Quick staining solution. Photographs were taken by a digital camera attached on Carzeiss microscope (model: […]). 5 random regions per each sample were picked to count eosinophiles, and the percentage of eosinophiles in each sample was shown in FIG. 2.

## OC[C@H]1O[C@@H](Oc2cc3c(O)cc(O)cc3[o+]c2-c2ccc(O)c(O)c2)[C@H](O)[C@@H](O)[C@@H]1O [Cyanidin glycoside, cyanidin 3-O-β-glucopyranoside]
[1]; 1.5 mg/kg orally once a day
  Percentage of eosinophiles: 49.5 ± 5.8 %
[1]; 1.5 mg/kg orally once a day, listed as cyanidin glycoside
  Percentage of eosinophiles: 49%
[1]; 4.5 mg/kg orally once a day
  Percentage of eosinophiles: 38.2 ± 6.2 %
[1]; 4.5 mg/kg orally once a day, listed as cyanidin glycoside
  Percentage of eosinophiles: 38%
[2]
  inflammation in bronchi: remarkably reduced

## Oc1ccc(-c2[o+]c3cc(O)cc(O)c3cc2O)cc1.[Cl-] [pelargonidin, 3,5,7-trihydroxy-2-(4-hydroxyphenyl)-1-benzopyrylium chloride]
[3]; 0.5 mg/kg, data not shown
  inflammation-inhibiting effect: outstanding
[3]; 1.25 mg/kg, 48 hours after treatment, FIG. 3
  inflammation in bronchi: remarkably reduced
[4]; 0.5 mg/kg and 1.25 mg/kg, intraperitoneal injection
  accumulation of eosinophiles in airway: inhibited
[4]; 0.5 mg/kg
  percentage of eosinophiles in airway: 30%
[4]; 1.25 mg/kg
  percentage of eosinophiles in airway: 20%
